Experimental data taken from US20210386730A1 (priority 2020, published 2021).

Test: Solubility of indacaterol maleate and glycopyrrolate
Format: physicochemical
Procedure: In a formulation it is necessary to be sure that the active pharmaceutical ingredients (API) are dissolved completely.
0.02% tween-80: […].
pH=3 0.02% tween-80: […], adjust pH to 3 with hydrochloric acid. Other solutions were similarly prepared. The percentages mentioned above are percentages by weight.

CCc1cc2c(cc1CC)CC(NC[C@H](O)c1ccc(O)c3[nH]c(=O)ccc13)C2.O=C(O)/C=C\C(=O)O [Indacaterol Maleate, (R)-5-[2-(5,6-Diethylindan-2-ylamino)-1-hydroxyethyl]-8-hydroxy-1H-quinolin-2-one maleate]
Solubility (0.02% tween-80): 29.52 mg/100 ml | Solubility (Purified water): 29.95 mg/100 ml | Solubility (in words) (cyclodextrin added): improved significantly | Solubility (in words) (in purified water): not sufficiently soluble | Solubility (pH = 3 0.02% tween-80): 32.17 mg/100 ml | Solubility (pH = 3 2.5% SBECD solution): 351.46 mg/100 ml | Solubility (pH = 3 5% SBECD solution): 539.5 mg/100 ml | Solubility (pH = 3 Purified water): 31.21 mg/100 ml | Solubility (pH = 3.5 0.02% tween-80): 30.8 mg/100 ml | Solubility (pH = 3.5 Purified water): 29.97 mg/100 ml | Solubility (pH = 4 0.02% tween-80): 30.91 mg/100 ml | Solubility (pH = 4 0.5% SBECD solution): 55.523 mg/100 ml | Solubility (pH = 4 1% SBECD solution): 161.866 mg/100 ml | Solubility (pH = 4 2% SBECD solution): 211.4 mg/100 ml | Solubility (pH = 4 5% SBECD solution): 316 mg/100 ml | Solubility (pH = 4 Purified water): 30.82 mg/100 ml | Solubility (pH = 4.5 0.02% tween-80): 30.41 mg/100 ml | Solubility (pH = 4.5 Purified water): 30.32 mg/100 ml | Solubility (pH = 5 0.02% tween-80): 30.84 mg/100 ml | Solubility (pH = 5 Purified water): 28.98 mg/100 ml | Solubility (in words) (tween 80 added): insufficient
